The test has as its target T1, human GlyT1c transporter (Homo sapiens, UniProt P48067).
T1 construct: expressed in transfected cells; host or cells: CHO cells (recombinant; line hGlyT1c_5_CHO is named for the uptake assay)
T1 sequence (P48067 1-706): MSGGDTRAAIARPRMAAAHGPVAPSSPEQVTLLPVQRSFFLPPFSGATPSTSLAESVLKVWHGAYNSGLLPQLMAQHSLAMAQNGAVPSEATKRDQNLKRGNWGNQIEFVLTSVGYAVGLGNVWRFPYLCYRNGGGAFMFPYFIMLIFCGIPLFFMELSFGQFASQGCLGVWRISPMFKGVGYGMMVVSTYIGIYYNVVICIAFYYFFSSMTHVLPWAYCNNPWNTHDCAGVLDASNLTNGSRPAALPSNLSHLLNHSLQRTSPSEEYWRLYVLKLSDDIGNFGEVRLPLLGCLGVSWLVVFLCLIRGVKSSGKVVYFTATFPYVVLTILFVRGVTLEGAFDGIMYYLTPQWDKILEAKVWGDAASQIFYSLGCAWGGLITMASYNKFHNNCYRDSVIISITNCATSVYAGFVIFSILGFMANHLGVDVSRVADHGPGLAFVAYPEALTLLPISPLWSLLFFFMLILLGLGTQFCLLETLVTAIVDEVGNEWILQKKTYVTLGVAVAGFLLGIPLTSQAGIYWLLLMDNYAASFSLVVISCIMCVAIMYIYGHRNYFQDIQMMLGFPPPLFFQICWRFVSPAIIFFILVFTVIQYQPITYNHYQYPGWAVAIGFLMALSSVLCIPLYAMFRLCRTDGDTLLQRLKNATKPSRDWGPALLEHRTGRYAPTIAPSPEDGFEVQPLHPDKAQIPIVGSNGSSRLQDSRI
The experiment in a line: Radioligand binding assay using recombinant CHO cell membranes expressing human GlyT1. The conditions noted are these: radioligand binding to human GlyT1c transporter-expressing membranes. An excerpt: 2. Radioligand binding assays using recombinant CHO cell membranes expressing human GlyT1: […]
Broadly, the Ki is the equilibrium dissociation constant of an inhibitor or competing ligand from its target. Take `Cn1cnc(S(=O)(=O)N2C[C@@H](Nc3cc(F)c(F)c(Cl)c3)[C@H](c3ccc(F)cc3)C2)c1` (relative stereo) [Example 175, trans-N-(3-chloro-4,5-difluorophenyl)-4-(4-fluorophenyl)-1-[(1-methyl-1H-imidazol-4-yl)sulfonyl]pyrrolidin-3-amine]: the inhibitory constant (Ki) is no more than 1000 nM.

For `COc1ccc(N[C@@H]2CN(S(=O)(=O)c3cn(C)cn3)C[C@H]2c2ccccc2)cc1C#N` (relative stereo) [Example 100, 2-methoxy-5-({trans-1-[(1-methyl-1H-imidazol-4-yl)sulfonyl]-4-phenylpyrrolidin-3-yl}amino)benzonitrile], the inhibition constant Ki is no more than 10000 nM.

Turning to `Cn1cnc(S(=O)(=O)N2C[C@@H]([C@@H]3CCCOC3)[C@H](Nc3ccc(F)c(C(F)(F)F)c3)C2)c1` (mixture of isomers) [Example 791, Trans-N-[4-fluoro-3-(trifluoromethyl)phenyl]-1-[(1-methyl-1H-imidazol-4-yl)sulfonyl]-4-[(3S)-tetrahydro-2H-pyran-3-yl]pyrrolidin-3-amine], the Ki was no more than 1000 nM.

For the compound `Cn1cnc(S(=O)(=O)N2C[C@@H](C(=O)Nc3ccc(C(F)(F)F)c(Cl)c3)[C@H](c3ccc(F)cc3)C2)c1` (relative stereo) [Example 276, trans-N-[3-chloro-4-(trifluoromethyl)phenyl]-4-(4-fluorophenyl)-1-[(1-methyl-1H-imidazol-4-yl)sulfonyl]pyrrolidine-3-carboxamide], the Ki was no more than 1000 nM.

Consider `Cc1cc(N[C@H]2CN(S(=O)(=O)c3cn(C)cn3)C[C@@H]2c2ccc(F)cc2)ccc1Cl` [Example 743, (3R,4S)-N-(4-chloro-3-methylphenyl)-4-(4-fluorophenyl)-1-[(1-methyl-1H-imidazol-4-yl)sulfonyl]pyrrolidin-3-amine], for which the Ki is no more than 100 nM.

As to `Cn1cnc(S(=O)(=O)N2C[C@@H](Nc3ccc(F)c(F)c3F)[C@H](c3ccccc3)C2)c1` (relative stereo) [Example 234, trans-1-[(1-methyl-1H-imidazol-4-yl)sulfonyl]-4-phenyl-N-(2,3,4-trifluorophenyl)pyrrolidin-3-amine], the inhibitory constant (Ki) is no more than 1000 nM.

With `Cc1cc(N[C@@H]2CN(S(=O)(=O)c3cn(C)cn3)C[C@H]2c2ncccc2F)ncc1F` (relative stereo) [Example 769, 5-fluoro-N-{trans-4-(3-fluoropyridin-2-yl)-1-[(1-methyl-1H-imidazol-4-yl)sulfonyl]pyrrolidin-3-yl}-4-methylpyridin-2-amine], the inhibition constant Ki was no more than 1000 nM.

Consider `Cn1cnc(S(=O)(=O)N2C[C@@H](Nc3cccc(C(F)(F)F)c3)[C@H](c3ccccc3Cl)C2)c1` (relative stereo) [Example 255, trans-4-(2-chlorophenyl)-1-[(1-methyl-1H-imidazol-4-yl)sulfonyl]-N-[3-(trifluoromethyl)phenyl]pyrrolidin-3-amine], for which the inhibition constant Ki was no more than 100 nM.

As for `Cn1cnc(S(=O)(=O)N2C[C@@H](C(=O)NCc3cccc(OC(F)(F)F)c3)[C@H](c3ccc(F)cc3)C2)c1` (relative stereo) [Example 661, Trans-4-(4-fluorophenyl)-1-[(1-methyl-1H-imidazol-4-yl)sulfonyl]-N-[3-(trifluoromethoxy)benzyl]pyrrolidine-3-carboxamide], the inhibitory constant (Ki) was no more than 1000 nM.

Regarding `CCCNC[C@@H]1CN(S(=O)(=O)c2cn(C)cn2)C[C@H]1c1ccc(F)cc1` (relative stereo) [Example 594, N-({trans-4-(4-fluorophenyl)-1-[(1-methyl-1H-imidazol-4-yl)sulfonyl]pyrrolidin-3-yl}methyl)propan-1-amine], the inhibition constant (Ki) is no more than 10000 nM.

As to `Cn1cnc(S(=O)(=O)N2C[C@H](Nc3cccc(S(C)(=O)=O)c3)[C@@H](c3ccccc3)C2)c1` [Example 422, (3R,4S)-1-[(1-methyl-1H-imidazol-4-yl)sulfonyl]-N-[3-(methylsulfonyl)phenyl]-4-phenylpyrrolidin-3-amine], the inhibition constant (Ki) was no more than 1000 nM.

Consider `Cn1cnc(S(=O)(=O)N2C[C@@H](Nc3ccc(F)cc3)[C@H](c3ccc(F)cc3)C2)c1` [Example 324, (3S,4R)-N,4-bis(4-fluorophenyl)-1-[(1-methyl-1H-imidazol-4-yl)sulfonyl]pyrrolidin-3-amine], for which the Ki was no more than 10000 nM.

`Cn1cnc(S(=O)(=O)N2C[C@H](Nc3cccc4c3CNC4=O)[C@@H](c3ccccc3)C2)c1` [Example 421, 4-({(3R,4S)-1-[(1-methyl-1H-imidazol-4-yl)sulfonyl]-4-phenylpyrrolidin-3-yl}amino)-2,3-dihydro-1H-isoindol-1-one]: the inhibition constant (Ki) is no more than 10000 nM.

Consider `Cn1cnc(S(=O)(=O)N2C[C@H](NC(=O)Nc3ccc(F)cc3)[C@@H](c3ccc(F)cc3)C2)c1` [Example 704, 1-(4-fluorophenyl)-3-{(3R,4S)-4-(4-fluorophenyl)-1-[(1-methyl-1H-imidazol-4-yl)sulfonyl]pyrrolidin-3-yl}urea], for which the Ki is no more than 1000 nM.

For `Cn1cnc(S(=O)(=O)N2C[C@@H](Nc3ccccc3C(F)(F)F)[C@H](c3ccccc3)C2)c1` (relative stereo) [Example 66, trans-1-[(1-methyl-1H-imidazol-4-yl)sulfonyl]-4-phenyl-N-[2-(trifluoromethyl)phenyl]pyrrolidin-3-amine], the Ki is no more than 10000 nM.

With `Cn1cnc(S(=O)(=O)N2C[C@@H](Nc3cccnc3)[C@H](c3ccc(F)cc3)C2)c1` (relative stereo) [Example 179, N-{trans-4-(4-fluorophenyl)-1-[(1-methyl-1H-imidazol-4-yl)sulfonyl]pyrrolidin-3-yl}pyridin-3-amine], the inhibition constant Ki is no more than 10000 nM.

For `CCCCCCN[C@H]1CN(S(=O)(=O)c2cn(C)cn2)C[C@@H]1C1CCCCO1` (stereo partly drawn) [Example 679, (3R,4S)-N-hexyl-1-[(1-methyl-1H-imidazol-4-yl)sulfonyl]-4-(tetrahydro-2H-pyran-2-yl)pyrrolidin-3-amine], the Ki is no more than 1000 nM.

As to `Cn1cnc(S(=O)(=O)N2C[C@H](NCc3ccc(C(F)(F)F)cc3Cl)[C@@H](c3ccccc3)C2)c1` [Example 394, (3R,4S)-N-[2-chloro-4-(trifluoromethyl)benzyl]-1-[(1-methyl-1H-imidazol-4-yl)sulfonyl]-4-phenylpyrrolidin-3-amine], the Ki was no more than 10 nM.

As to `Cc1nc(N[C@H]2CN(S(=O)(=O)c3cn(C)cn3)C[C@@H]2c2ccc(F)cc2)cc(C(F)(F)F)n1` [Example 615, N-{(3R,4S)-4-(4-fluorophenyl)-1-[(1-methyl-1H-imidazol-4-yl)sulfonyl]pyrrolidin-3-yl}-2-methyl-6-(trifluoromethyl)pyrimidin-4-amine], the inhibitory constant (Ki) was no more than 1000 nM.

On to `Cn1cnc(S(=O)(=O)N2C[C@@H](Nc3cccc(F)c3)[C@H](c3ccc(F)cc3)C2)c1` (relative stereo) [Example 91, trans-N-(3-fluorophenyl)-4-(4-fluorophenyl)-1-[(1-methyl-1H-imidazol-4-yl)sulfonyl]pyrrolidin-3-amine], for which the inhibition constant (Ki) is no more than 100 nM.

On to `CCCCC(CC)CN[C@H]1CN(S(=O)(=O)c2cn(C)cn2)C[C@@H]1c1ccccc1` (stereo partly drawn) [Example 433, (3R,4S)-N-(2-ethylhexyl)-1-[(1-methyl-1H-imidazol-4-yl)sulfonyl]-4-phenylpyrrolidin-3-amine], for which the Ki was no more than 100 nM.

As to `Cn1cnc(S(=O)(=O)N2CC(Cc3cccc(Cl)c3)C(c3ccc(F)cc3)C2)c1` (stereo not drawn) [Example 182, 4-{[3-(3-chlorobenzyl)-4-(4-fluorophenyl)pyrrolidin-1-yl]sulfonyl}-1-methyl-1H-imidazole], the Ki was no more than 100 nM.

With `COCCCCN[C@H]1CN(S(=O)(=O)c2cn(C)cn2)C[C@@H]1c1ccccc1` [Example 647, (3R,4S)-N-(4-methoxybutyl)-1-[(1-methyl-1H-imidazol-4-yl)sulfonyl]-4-phenylpyrrolidin-3-amine], the Ki was no more than 10000 nM.

With `Cn1cnc(S(=O)(=O)N2C[C@H](Nc3ccc4c(c3)CCCO4)[C@@H](c3ccccc3)C2)c1` [Example 658, (3R,4S)-N-(3,4-dihydro-2H-chromen-6-yl)-1-[(1-methyl-1H-imidazol-4-yl)sulfonyl]-4-phenylpyrrolidin-3-amine], the Ki was no more than 1000 nM.

For the compound `Cn1cnc(S(=O)(=O)N2C[C@@H](C(=O)c3ccc(OC(F)(F)F)cc3)[C@H](c3ccc(F)cc3)C2)c1` (relative stereo) [Example 363, {Trans-4-(4-fluorophenyl)-1-[(1-methyl-1H-imidazol-4-yl)sulfonyl]pyrrolidin-3-yl}[4-(trifluoromethoxy)phenyl]methanone], the inhibition constant Ki is no more than 100 nM.

Regarding `Cn1cnc(S(=O)(=O)N2C[C@H](Nc3cc(-c4cccnc4)ccn3)[C@@H](c3ccc(F)cc3)C2)c1` [Example 750, N-{(3R,4S)-4-(4-fluorophenyl)-1-[(1-methyl-1H-imidazol-4-yl)sulfonyl]pyrrolidin-3-yl}-3,4'-bipyridin-2'-amine], the Ki is no more than 100 nM.

Turning to `N#Cc1cccc(N[C@@H]2CN(S(=O)(=O)c3ccc(C(F)(F)F)cc3)C[C@H]2c2ccccc2)c1` (relative stereo) [Example 144, 3-{[trans-4-phenyl-1-{[4-(trifluoromethyl)phenyl]sulfonyl}pyrrolidin-3-yl]amino}benzonitrile], the Ki was greater than 10000 nM.
